biological target: T1, Human full-length CaMKIIδ (Homo sapiens, UniProt Q13557); experiment: Human CaMKII enzyme inhibition assay (radiometric kinase assay); format: biochemical; details: 3 μM compound; 500 nM ATP; 0.5 nM CaMKIIδ; read-out: CaMKIIδ inhibitory activity (%) at 3 μM
T1 construct: Human full-length CaMKIIδ (Cat #02-111) was obtained from Carna Biosciences; GST; purchased Carna Biosciences 02-111
Procedure: In Vitro CaMKIIδ Inhibitory Activity was Evaluated by an Enzyme Assay.
Human CaMKII Enzyme Inhibition Assay
Kinase assay for CaMKIIs was performed using the radiometric assay. Human full-length CaMKIIδ (Cat #02-111) was obtained from Carna Biosciences (Kobe, Japan).
Enzyme reactions were performed in 25 mM HEPES, pH 7.5, with 5 mM magnesium chloride, 1 mM calcium chloride, 10 μg/mL Calmodulin, 2 mM DTT, 0.01% Tween20 and 500 nM ATP (0.2 μCi/well of [γ-33P] ATP) containing 0.5 nM CaMKIIδ and 0.1 μM autophosphorylation peptide (KKALRRQETVDAL)(Toray Research Center).
After incubating the enzyme, peptide, and compounds for 5 min, kinase reactions were initiated by adding ATP, followed by incubation for 60 min at room temperature in a total volume of 50 μL. The reactions were terminated by the addition of 10% trichloroacetic acid (final concentration). The [γ-33P]-phosphorylated proteins were filtered in a Harvest Plate (Merck Millipore) with a Cell Harvester (PerkinElmer) and then free [γ-33P] ATP was washed out with 3% phosphoric acid. The plates were dried, followed by the addition of 40 μl of MicroScintO (PerkinElmer). The radioactivity was counted by a TopCount scintillation counter (PerkinElmer). The signals of the reaction without enzyme were defined as 100% inhibitory activity and those of the reaction without inhibitors as 0% inhibitory activity. In vitro CaMKIIδ inhibitory activity was evaluated by % inhibitory activity of 3 μM compound concentration.

| inhibition at 3 µM | SMILES |
| --- | --- |
| 97% | COc1cc(C(=O)N2CCN(C)CC2)ccc1Nc1ncc(-c2ccc(C#N)c(O[C@@H](C)Cn3cncn3)c2)cn1 [Example 73, 4-(2-((2-methoxy-4-((4-methylpiperazin-1-yl)car-bonyl)phenyl)amino)pyrimidin-5-yl)-2-(((2S)-1-(1H-1,2,4-triazol-1-yl)propan-2-yl)oxy)benzonitrile] |
| 99% | COc1cc(C2CCNCC2)ccc1Nc1ncc(-c2ccc(C#N)c(O[C@@H](C)Cn3cncn3)c2)cn1 [Example 50, 4-(2-((2-methoxy-4-(piperidin-4-yl)phenyl)amino)pyrimidin-5-yl)-2-(((2S)-1-(1H-1,2,4-triazol-1-yl)propan-2-yl)oxy)benzonitrile] |
| 93% | C[C@@H](Cn1ncnn1)Oc1cc(-c2cnc(Nc3cnn(C)c3)nc2)ccc1C#N [Example 411, 4-(2-((1-methyl-1H-pyrazol-4-yl)amino)pyrimidin-5-yl)-2-(((2S)-1-(2H-tetrazol-2-yl)propan-2-yl)oxy)benzonitrile] |
| 96% | Cc1nn(C)cc1Nc1ncc(-c2ccc(C#N)c(O[C@@H](C)Cn3cncn3)c2)cn1 [Example 357, 4-(2-((1,3-dimethyl-1H-pyrazol-4-yl)amino)pyrimidin-5-yl)-2-(((2S)-1-(1H-1,2,4-triazol-1-yl)propan-2-yl)oxy)benzonitrile] |
| 99% | COc1cc(N2CCN(C3COC3)CC2)ccc1Nc1ncc(-c2ccc(C#N)c(O[C@@H](C)Cn3cnnn3)c2)cn1 [Example 192, 4-(2-((2-methoxy-4-(4-(oxetan-3-yl)piperazin-1-yl)phenyl)ami-no)pyrimidin-5-yl)-2-(((2S)-1-(1H-tetrazol-1-yl)propan-2-yl)oxy)benzonitrile] |
| 99% | COc1cc(N2CCC(N3CCOCC3)CC2)ccc1Nc1ncc(-c2ccc(C#N)c(O[C@@H](C)Cn3cncn3)c2)cn1 [Example 1, 4-(2-((2-methoxy-4-(4-(morpholin-4-yl)piperidin-1-yl)phenyl)amino)pyrimidin-5-yl)-2-(((2S)-1-(1H-1,2,4-triazol-1-yl)propan-2-yl)oxy)benzonitrile] |
| 82% | Cn1cc(Nc2ncc(-c3ccc(C#N)c(O[C@@H](CO)Cn4cccn4)c3)cn2)cn1 [Example 402, 2-(((2R)-1-hydroxy-3-(1H-pyrazol-1-yl)propan-2-yl)oxy)-4-(2-((1-methyl-1H-pyrazol-4-yl)amino)pyrimidin-5-yl)benzonitrile] |
| 99% | COc1cc(C2CCN(CCO)CC2)ccc1Nc1ncc(-c2ccc(C#N)c(O[C@@H](C)Cn3cnnn3)c2)cn1 [Example 160, 4-(2-((4-(1-(2-hydroxyethyl)piperidin-4-yl)-2-methoxy-phenyl)amino)pyrimidin-5-yl)-2-(((2S)-1-(1H-tetrazol-1-yl)propan-2-yl)oxy)benzonitrile] |
| 93% | Cc1nn(C(C)C)cc1Nc1ncc(-c2ccc(C#N)c(O[C@@H](C)Cn3cncn3)c2)cn1 [Example 358, 4-(2-((1-isopropyl-3-methyl-1H-pyrazol-4-yl)amino)pyrimidin-5-yl)-2-(((2S)-1-(1H-1,2,4-triazol-1-yl)propan-2-yl)oxy)benzonitrile] |
| 97% | COc1cc(C(=O)N2CCOCC2)ccc1Nc1ncc(-c2ccc(C#N)c(O[C@@H](C)Cn3cncn3)c2)cn1 [Example 72, 4-(2-((2-methoxy-4-(morpholin-4-ylcar-bonyl)phenyl)amino)pyrimidin-5-yl)-2-(((2S)-1-(1H-1,2,4-triazol-1-yl)propan-2-yl)oxy)benzonitrile] |
| 98% | C[C@@H](Cn1cncn1)Oc1cc(-c2cnc(Nc3cnn(C4CC4)c3)nc2)ccc1C#N [Example 361, 4-(2-((1-cyclopropyl-1H-pyrazol-4-yl)amino)pyrimidin-5-yl)-2-(((2S)-1-(1H-1,2,4-triazol-1-yl)propan-2-yl)oxy)benzonitrile] |
| 98% | COc1cc(C(=O)N2CCC(OC)CC2)ccc1Nc1ncc(-c2ccc(C#N)c(O[C@@H](C)Cn3cnnn3)c2)cn1 [Example 152, 4-(2-((2-methoxy-4-((4-methoxypiperidin-1-yl)carbonyl)phenyl)ami-no)pyrimidin-5-yl)-2-(((2S)-1-(1H-tetrazol-1-yl)propan-2-yl)oxy)benzonitrile] |
| 97% | CC(C)n1cc(Nc2ncc(-c3ccc(C#N)c(O[C@@H](C)Cn4cnnn4)c3)cn2)cn1 [Example 374, 4-(2-((1-isopropyl-1H-pyrazol-4-yl)amino)pyrimidin-5-yl)-2-(((2S)-1-(1H-tetrazol-1-yl)propan-2-yl)oxy)benzonitrile] |
| 99% | C[C@@H](Cn1cnnn1)Oc1cc(-c2cnc(Nc3cn(C)nc3C(F)(F)F)nc2)ccc1C#N [Example 380, 4-(2-((1-methyl-3-(trifluoromethyl)-1H-pyrazol-4-yl)amino)pyrimidin-5-yl)-2-(((2S)-1-(1H-tetrazol-1-yl)propan-2-yl)oxy)benzonitrile] |
| 99% | COc1ccccc1Nc1ncc(-c2ccc(C#N)c(O[C@@H](C)Cn3cnnn3)c2)cn1 [Example 16, 4-(2-((2-methoxy-phenyl)amino)pyrimidin-5-yl)-2-(((2S)-1-(1H-tetrazol-1-yl)propan-2-yl)oxy)benzonitrile] |
| 99% | COc1cc(C2CCN(C3COC3)CC2)ccc1Nc1ncc(-c2ccc(Cl)c(O[C@@H](C)Cn3cnnn3)c2)cn1 [Example 206, 5-(4-chloro-3-(((2S)-1-(1H-tetrazol-1-yl)propan-2-yl)oxy)phenyl)-N-(2-methoxy-4-(1-(oxetan-3-yl)piperidin-4-yl)phenyl)pyrimidin-2-amine] |
| 98% | C[C@@H](O)Cn1cc(Nc2ncc(-c3ccc(C#N)c(O[C@@H](C)Cn4cncn4)c3)cn2)cn1 [Example 416, 4-(2-((1-((2R)-2-hydroxypropyl)-1H-pyrazol-4-yl)amino)pyrimidin-5-yl)-2-(((2S)-1-(1H-1,2,4-triazol-1-yl)propan-2-yl)oxy)benzonitrile] |
| 97% | C[C@@H](Cn1cncn1)Oc1cc(-c2cnc(Nc3cnn(CC(F)(F)F)c3)nc2)ccc1C#N [Example 362, 2-(((2S)-1-(1H-1,2,4-triazol-1-yl)propan-2-yl)oxy)-4-(2-((1-(2,2,2-trifluoroethyl)-1H-pyrazol-4-yl)amino)pyrimidin-5-yl)benzonitrile] |
| 98% | COc1cc(N2CCC(N3CCOCC3)CC2)ccc1Nc1ncc(-c2ccc(C#N)c(O[C@@H](C)Cn3cnnc3)c2)cn1 [Example 17, 4-(2-((2-methoxy-4-(4-(morpholin-4-yl)piperidin-1-yl)phenyl)amino)pyrimidin-5-yl)-2-(((2S)-1-(4H-1,2,4-triazol-4-yl)propan-2-yl)oxy)benzonitrile] |
| 98% | COc1cc(C(=O)N2CCOCC2)ccc1Nc1ncc(-c2ccc(C#N)c(O[C@@H](C)Cn3cnnn3)c2)cn1 [Example 82, 4-(2-((2-methoxy-4-(morpholin-4-ylcar-bonyl)phenyl)amino)pyrimidin-5-yl)-2-(((2S)-1-(1H-tetrazol-1-yl)propan-2-yl)oxy)benzonitrile] |
| 98% | COCCN1CCC(c2ccc(Nc3ncc(-c4ccc(C#N)c(O[C@@H](C)Cn5cnnn5)c4)cn3)c(OC)c2)CC1 [Example 85, 4-(2-((2-methoxy-4-(1-(2-methoxyethyl)piperidin-4-yl)phenyl)amino)pyrimidin-5-yl)-2-(((2S)-1-(1H-tetrazol-1-yl)propan-2-yl)oxy)benzonitrile] |
| 98% | COc1cc(C2CCN(C3COC3)CC2)ccc1Nc1ncc(-c2ccc(C#N)c(O[C@@H](C)Cn3cnnn3)c2)cn1 [Example 75, 4-(2-((2-methoxy-4-(1-(oxetan-3-yl)piperidin-4-yl)phenyl)amino)pyrimidin-5-yl)-2-(((2S)-1-(1H-tetrazol-1-yl)propan-2-yl)oxy)benzonitrile] |
| 98% | Cc1nn(C)cc1Nc1ncc(-c2ccc(C#N)c(O[C@@H](C)Cn3cnnn3)c2)cn1 [Example 372, 4-(2-((1,3-dimethyl-1H-pyrazol-4-yl)amino)pyrimidin-5-yl)-2-(((2S)-1-(1H-tetrazol-1-yl)propan-2-yl)oxy)benzonitrile] |
| 99% | C[C@@H](Cn1cnnn1)Oc1cc(-c2cnc(Nc3cnn(C)c3)nc2)ccc1C#N [Example 410, 4-(2-((1-methyl-1H-pyrazol-4-yl)amino)pyrimidin-5-yl)-2-(((2S)-1-(1H-tetrazol-1-yl)propan-2-yl)oxy)benzonitrile] |
| 98% | COc1cc(N2CCC(N3CCOCC3)CC2)ccc1Nc1ncc(-c2ccc(C#N)c(O[C@@H](C)Cn3ccnc3)c2)cn1 [Example 39, 2-(((2S)-1-(1H-imidazol-1-yl)propan-2-yl)oxy)-4-(2-((2-methoxy-4-(4-(morpholin-4-yl)piperidin-1-yl)phenyl)amino)pyrimidin-5-yl)benzonitrile] |
| 99% | COc1nc(N2CCC(N3CCOCC3)CC2)ccc1Nc1ncc(-c2ccc(Cl)c(O[C@@H](C)Cn3cnnn3)c2)cn1 [Example 212, 5-(4-chloro-3-(((2S)-1-(1H-tetrazol-1-yl)propan-2-yl)oxy)phenyl)-N-(2-methoxy-6-(4-(morpholin-4-yl)piperidin-1-yl)pyridin-3-yl)pyrimidin-2-amine] |

From US10543212B2, “Substituted amines for treating cardiac diseases” (Cardurion Pharmaceuticals, LLC, priority 2017, dated 2020)
